Where “and” joins values, the source holds several entries; their conditions need not be identical. Equal values may be shown once.
How the values were obtained:
IRE1 E621A, E836A = biological target: T1, IRE1 E621A, E836A (Homo sapiens, UniProt O75460+P40337, E621A/E836A); assay: NanoLuc signal IRE1 depletion, IRE1 E621A, E836A, HEK293T cells; format: cell-based; details: E836A double mutant
T1 construct: N2731; host or cells: HEK293T
Method: 8 × 10^5 293T cells per well were seeded in 6-well plates (Costar, #3516) and incubated at 37 °C, 5% CO2 for 6 h. A mixture of 0.2 µg ERN1 (IRE1)-NanoLuc Fusion Vector (Promega, NV1321), 2 µg HaloTag-VHL Fusion Vector (Promega, N2731), 6 µl FuGENE HD Transfection Reagent (Promega, E2311), and 100 µL Opti-MEM I reduced serum medium (Gibco, #31985062) per well was incubated at room temperature for 20 min before adding to cells. For expression of IRE1 mutants, site-directed mutagenesis was performed using the ERN1-NanoLuc Fusion Vector as the DNA template, and the transfection mixture was prepared in the same way as WT IRE1. After 18 h, cells from 6-well plates were trypsinized, resuspended in Opti-MEM I reduced serum medium, and reseeded into 96-well plates (Costar, #3917), with or without the addition of HaloTag NanoBRET 618 Ligand (Promega, G9801). After 18 h of incubation, a titration of G6374 (dilutions made in Opti-MEM I reduced serum medium) was added to the cells. After 2 h of G6374 treatment, NanoBRET Nano-Glo Substrate (Promega, N1571) was added to cells. The 96-well plates were imaged by GloMax Discover Microplate Reader (Promega, GM3000) with the default “BRET: NanoBRET 618” protocol (Donor: 450 BP; Acceptor: 600 LP; Integration: 0.3 s). Data analysis was performed according to the user manual.

OPM2 cells = assay: Incucyte cell confluency, OPM2 cells; format: cell-based; details: OPM2 shIRE1 cells, titration
Method: For non-adherent AMO1, KMS27, and OPM2 cells, cells were plated at 5000 cells/well in ultra-low attachment (ULA) 96-well plates (Costar, #7007) and centrifuged at 600 × g for 5 min for spheroid formation. For adherent U2OS and Colo201 cells, 2000 cells/well were seeded in a clear flat-bottom 96-well plate (Costar, #3595). Treatments were added at the time of cell seeding, and cells were cultured in complete RPMI media to a final volume of 200 µL/well. Cultures were maintained at 37 °C throughout the duration of the experiment. Cell confluency was tracked using the Incucyte live-cell imaging system (Sartorius S3). Picture frames were captured every 4 h with a 4× objective, and cell confluency (%) from the total well area as a function of time was calculated using the Incucyte software (version 2023 A Rev2).

VCB [1] = assay: Fluorescence polarization displacement of FAM-labeled HIF-1α peptide from VCB; format: binding; details: ratio between IC50 of VCB: G6374 and VCB: (G6374 + IRE1)
Method: (§1) Assays were performed in duplicates on ProxiPlate-384 F Plus (Revvity, #6008260) with a total well volume of 16 µL. Each well contained 50 nM of FAM-labeled HIF-1α peptide (FAM-DEALA-Hyp-YIPD, biotechne, #7287), 500 nM of VCB protein, and a titration of G6374 (2-fold serial dilutions from […] to 625 nM, then 1.3-fold serial dilutions to 284.5 nM, followed by 2-fold serial dilutions to 8.9 nM) or IRE1.KR:G6374 (constant concentration of 2.4 µM IRE1.KR and the same serial dilution of G6374 as mentioned above) in 50 mM HEPES pH 7.2, 100 mM NaCl, 1 mM TCEP, and 0.002% Tween 20 with a final concentration of DMSO of 1.5%. The plate was incubated at room temperature in the dark, first for 5 min on a shaker at 300 rpm, then for another 30 min on the bench. FP was measured using the EnVision Multimode Plate Reader (PerkinElmer) with fluorescence excitation and emission wavelengths of 480 nm and 535 nm. The percentage of HIF-1α displacement was calculated by normalization to maximum fluorescence anisotropy (or 0% displacement of the HIF-1α peptide) and minimum fluorescence anisotropy (or 100% displacement of the HIF-1α peptide), which were determined by “top” and “bottom” values of the curve fit of fluorescence anisotropy against G6374 concentration in GraphPad Prism 10 (GraphPad Software, Inc.). The IC50 values were then determined by curve fitting with the percentage of HIF-1α displacement against G6374 concentration in GraphPad Prism 10 (GraphPad Software, Inc.).

VCB [2] = biological target: VCB (Homo sapiens, UniProt P40337); assay: as above; format: binding
Sequence of VCB (Homo sapiens, UniProt P40337) (Q15370 whole entry): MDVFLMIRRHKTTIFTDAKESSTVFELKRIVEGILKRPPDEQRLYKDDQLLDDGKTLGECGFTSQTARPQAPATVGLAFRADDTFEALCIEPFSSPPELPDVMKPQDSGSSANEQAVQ
Sequence of VCB (Homo sapiens, UniProt P40337) (Q15369 17-112, further chain): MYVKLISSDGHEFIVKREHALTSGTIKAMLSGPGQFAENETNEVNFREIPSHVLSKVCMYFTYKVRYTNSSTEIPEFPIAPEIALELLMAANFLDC
Sequence of VCB (Homo sapiens, UniProt P40337) (P40337 55-213): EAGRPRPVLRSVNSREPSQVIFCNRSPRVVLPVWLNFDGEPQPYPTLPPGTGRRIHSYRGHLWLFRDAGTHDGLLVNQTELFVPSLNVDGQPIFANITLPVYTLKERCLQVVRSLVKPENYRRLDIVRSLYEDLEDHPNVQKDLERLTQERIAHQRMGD
Method: as §1

T1 sequence (O75460 19-977 E621A/E836A): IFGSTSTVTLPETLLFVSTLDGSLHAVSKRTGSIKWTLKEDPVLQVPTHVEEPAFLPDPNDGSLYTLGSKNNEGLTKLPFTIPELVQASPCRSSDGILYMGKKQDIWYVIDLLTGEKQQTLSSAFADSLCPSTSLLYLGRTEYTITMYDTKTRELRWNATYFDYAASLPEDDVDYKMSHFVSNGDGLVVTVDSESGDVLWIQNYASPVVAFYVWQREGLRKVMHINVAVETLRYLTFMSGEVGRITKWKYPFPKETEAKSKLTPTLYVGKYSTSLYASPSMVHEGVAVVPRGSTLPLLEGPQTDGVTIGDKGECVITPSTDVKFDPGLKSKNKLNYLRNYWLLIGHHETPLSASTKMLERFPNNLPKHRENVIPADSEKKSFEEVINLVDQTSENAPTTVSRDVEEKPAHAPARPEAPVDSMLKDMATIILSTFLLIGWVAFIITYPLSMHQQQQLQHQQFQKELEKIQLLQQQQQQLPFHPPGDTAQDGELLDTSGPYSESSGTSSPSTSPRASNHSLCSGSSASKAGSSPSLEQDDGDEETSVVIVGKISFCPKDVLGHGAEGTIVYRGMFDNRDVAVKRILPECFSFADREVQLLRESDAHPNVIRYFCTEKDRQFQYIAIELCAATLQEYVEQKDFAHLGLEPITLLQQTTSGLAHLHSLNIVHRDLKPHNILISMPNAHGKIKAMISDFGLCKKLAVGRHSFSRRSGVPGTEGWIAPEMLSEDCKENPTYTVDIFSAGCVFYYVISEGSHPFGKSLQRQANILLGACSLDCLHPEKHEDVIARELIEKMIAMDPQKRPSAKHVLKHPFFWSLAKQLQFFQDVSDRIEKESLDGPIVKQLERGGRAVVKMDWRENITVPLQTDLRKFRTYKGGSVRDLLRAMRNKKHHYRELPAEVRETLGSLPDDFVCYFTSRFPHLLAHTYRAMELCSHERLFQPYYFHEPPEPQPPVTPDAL
T1 sequence (P40337 whole entry): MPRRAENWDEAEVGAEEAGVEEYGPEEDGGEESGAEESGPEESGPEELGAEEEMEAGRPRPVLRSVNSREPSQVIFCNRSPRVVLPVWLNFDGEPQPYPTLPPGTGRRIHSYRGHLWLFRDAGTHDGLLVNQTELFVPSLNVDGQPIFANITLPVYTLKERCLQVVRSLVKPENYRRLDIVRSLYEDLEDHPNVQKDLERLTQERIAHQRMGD
T1 sequence (Q15369 whole entry partner): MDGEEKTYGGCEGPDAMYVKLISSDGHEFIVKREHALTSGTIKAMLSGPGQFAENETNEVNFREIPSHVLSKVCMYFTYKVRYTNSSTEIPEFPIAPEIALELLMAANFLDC
T1 sequence (Q15370 whole entry partner): as the sequence (Q15370 whole entry) above
T1 sequence (Q13617 whole entry partner): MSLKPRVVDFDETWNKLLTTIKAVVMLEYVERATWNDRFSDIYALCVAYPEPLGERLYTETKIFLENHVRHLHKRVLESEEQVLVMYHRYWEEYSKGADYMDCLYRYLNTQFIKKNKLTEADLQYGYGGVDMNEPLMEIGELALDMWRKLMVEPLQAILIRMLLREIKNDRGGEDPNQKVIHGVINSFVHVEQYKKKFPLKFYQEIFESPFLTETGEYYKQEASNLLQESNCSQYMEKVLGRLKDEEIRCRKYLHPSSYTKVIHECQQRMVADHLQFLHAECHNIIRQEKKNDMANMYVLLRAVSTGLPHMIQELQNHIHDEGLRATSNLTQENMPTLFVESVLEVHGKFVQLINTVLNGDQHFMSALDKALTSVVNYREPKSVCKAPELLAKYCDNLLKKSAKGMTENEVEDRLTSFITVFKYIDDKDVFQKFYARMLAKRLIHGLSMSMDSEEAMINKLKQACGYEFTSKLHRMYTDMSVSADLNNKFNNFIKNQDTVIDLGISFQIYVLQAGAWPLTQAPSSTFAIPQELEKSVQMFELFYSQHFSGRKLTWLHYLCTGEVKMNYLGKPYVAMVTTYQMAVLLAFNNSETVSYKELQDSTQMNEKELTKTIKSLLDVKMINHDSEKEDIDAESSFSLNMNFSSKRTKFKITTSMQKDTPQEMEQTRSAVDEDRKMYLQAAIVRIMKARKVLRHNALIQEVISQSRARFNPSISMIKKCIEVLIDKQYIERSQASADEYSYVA
T1 sequence (P62877 whole entry partner): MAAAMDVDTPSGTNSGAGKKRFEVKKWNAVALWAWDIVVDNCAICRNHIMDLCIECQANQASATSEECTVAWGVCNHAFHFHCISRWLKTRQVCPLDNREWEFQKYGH

## Cc1ncsc1-c1ccc(CNC(=O)[C@@H]2C[C@@H](O)CN2C(=O)[C@@H](NC(=O)CCCCN2CCN([C@H]3CC[C@H](Nc4ncc5ccc(=O)n(C(C)C)c5n4)CC3)CC2)C(C)(C)C)cc1 [G6374]
IRE1 E621A, E836A
  DC50: 110 ± 30 nM
IRE1 E621A, E836A; HEK-293T
  Dmax: 67%
OPM2 cells
  growth inhibition (cell confluency): concentration-dependent growth inhibition
VCB [1]
  Cooperativity alpha: 5 and 5 ± 0.15
VCB [2]; G6374 alone, absence of IRE1, N=3, mean ± SEM
  IC50: 2480 ± 112 nM
VCB [2]; G6374 in the presence of saturating IRE1 (2.4 µM), N=3, mean ± SEM
  IC50: 492 ± 21 nM

— PMC12749748, “Chemically-induced degradation of the endoplasmic-reticulum stress sensor IRE1 by a VHL-recruiting chimera” (Nature Communications, 2025)
